Assay [1] addresses T1, Xanthine dehydrogenase/oxidase (Homo sapiens, UniProt P47989). Put plainly: Inhibition of xanthine oxidase assessed as decrease of uric acid generation.
In assay [2] the target is T1, Xanthine dehydrogenase/oxidase. Briefly: Inhibition of xanthine oxidase assessed as decrease of superoxide generation.
The test system of assay [3] is Radical scavenging activity. Put plainly: Antioxidant activity assessed as DPPH radical scavenging activity after 30 mins. Type of assay: functional.

pIC50: −log10 of the molar value.

T1 sequence (P47989 whole entry): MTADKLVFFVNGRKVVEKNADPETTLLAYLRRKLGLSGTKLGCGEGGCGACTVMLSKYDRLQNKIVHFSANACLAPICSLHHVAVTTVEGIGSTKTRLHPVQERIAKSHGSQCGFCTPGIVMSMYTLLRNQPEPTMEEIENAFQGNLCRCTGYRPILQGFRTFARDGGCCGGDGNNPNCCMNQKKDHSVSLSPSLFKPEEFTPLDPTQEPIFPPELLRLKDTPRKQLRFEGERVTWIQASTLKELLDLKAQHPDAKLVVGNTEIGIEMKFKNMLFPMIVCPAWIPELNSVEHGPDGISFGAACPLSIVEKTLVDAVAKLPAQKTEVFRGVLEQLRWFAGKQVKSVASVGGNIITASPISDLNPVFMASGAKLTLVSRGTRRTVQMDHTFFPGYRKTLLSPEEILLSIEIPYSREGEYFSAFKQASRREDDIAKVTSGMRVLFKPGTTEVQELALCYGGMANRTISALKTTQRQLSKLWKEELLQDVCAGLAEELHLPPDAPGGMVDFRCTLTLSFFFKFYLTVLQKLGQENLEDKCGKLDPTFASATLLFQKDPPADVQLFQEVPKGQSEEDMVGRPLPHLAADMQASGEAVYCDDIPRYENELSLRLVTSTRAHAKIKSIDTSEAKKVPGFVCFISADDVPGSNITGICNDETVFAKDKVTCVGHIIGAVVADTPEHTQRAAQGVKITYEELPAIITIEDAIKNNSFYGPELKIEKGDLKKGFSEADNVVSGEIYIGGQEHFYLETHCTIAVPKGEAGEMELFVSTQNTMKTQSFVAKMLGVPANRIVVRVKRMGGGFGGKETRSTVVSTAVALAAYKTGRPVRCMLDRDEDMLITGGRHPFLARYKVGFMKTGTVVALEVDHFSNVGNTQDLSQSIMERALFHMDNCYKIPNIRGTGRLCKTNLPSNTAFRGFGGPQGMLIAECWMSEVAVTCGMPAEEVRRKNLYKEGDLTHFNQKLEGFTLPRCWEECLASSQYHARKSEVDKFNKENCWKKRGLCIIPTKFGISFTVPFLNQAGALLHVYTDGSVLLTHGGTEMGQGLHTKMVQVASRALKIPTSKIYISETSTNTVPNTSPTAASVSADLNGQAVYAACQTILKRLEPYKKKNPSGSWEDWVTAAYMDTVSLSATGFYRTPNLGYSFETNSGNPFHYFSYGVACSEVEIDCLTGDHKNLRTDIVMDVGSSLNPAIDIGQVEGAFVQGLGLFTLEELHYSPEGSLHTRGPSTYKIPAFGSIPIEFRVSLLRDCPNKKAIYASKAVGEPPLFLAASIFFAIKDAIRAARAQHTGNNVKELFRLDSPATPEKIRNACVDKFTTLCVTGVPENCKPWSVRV

Regarding `O=c1c(-c2ccc(O)cc2)coc2cc(O)ccc12` [DAIDZEIN], the pIC50 in assay [1] is less than 3.00; in assay [2], 3.37.

Turning to `O=c1c(-c2ccc(O)cc2)coc2cc(O)cc(O)c12` [GENISTEIN], the pIC50 in assay [1] was less than 3.00; in assay [2], 3.63.

As for `O=c1c(-c2ccc(O)cc2)coc2cc(O)c(O)cc12`, the pIC50 is less than 3.00 in assay [1], 4.49 in assay [3] and less than 3.00 in assay [2].

Regarding `O=C1O[C@H]([C@@H](O)CO)C(O)=C1O` [ASCORBIC ACID], the negative-log IC50 (pIC50) in assay [3] is 4.28.

In the case of `Cc1c(C)c2c(c(C)c1O)CCC(C)(C(=O)O)O2` (configuration not stated) [TROLOX], the pIC50 in assay [3] was 4.31.

With `O=c1c(-c2ccc(O)c(O)c2)coc2cc(O)ccc12`, the negative logarithm of the IC50 (pIC50) was less than 3.00 in assay [1], 4.54 in assay [3] and 4.77 in assay [2].

Regarding `COc1cc2c(=O)c(-c3ccc(O)cc3)coc2cc1O` [GLYCITEIN], the pIC50 in assay [1] was less than 3.00; in assay [2] it was 3.17.

With `O=c1c(-c2ccc(O)cc2)coc2c(O)c(O)ccc12`, the pIC50 is less than 3.00 in assay [1], 4.67 in assay [3] and 5.18 in assay [2].
